Where “and” joins values, the source holds several entries; their conditions need not be identical. Identical values can stand only once. Toxic doses and inconclusive results are not listed. How the source made its calls: active means survival T/C of 150% or more; inactive means T/C below 125% in these data.
Tested on: BDF1 mice, P388 leukemia ip, median survival T/C
Experiment: NCI In Vivo Anticancer Drug Screen. Data for tumor model P388 Leukemia (intraperitoneal) in B6D2F1 (BDF1) mice
Conditions: endpoint: median survival time, higher = longer survival
In short: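 Vehicle-dosed animals serve as the reference; survival of compound-dosed, tumour-implanted mice is divided by it.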

[1] = dose: 6.25 mg/kg/injection, schedule: Q01DX009 (ip), vehicle: Klucel (hydroxypropylcellulose) (HPC)
[2] = dose: 12.5 mg/kg/injection, schedule: Q01DX009 (ip), vehicle: Klucel (hydroxypropylcellulose) (HPC)
[3] = dose: 100.0 mg/kg/injection, schedule: Q04DX003 (ip), vehicle: saline with Tween-80
[4] = dose: 200.0 mg/kg/injection, schedule: Q04DX003 (ip), vehicle: saline with Tween-80
[5] = dose: 400.0 mg/kg/injection, schedule: Q04DX003 (ip), vehicle: saline with Tween-80
[6] = dose: 50.0 mg/kg/injection, schedule: Q01DX005 (ip), vehicle: saline with Tween-80
[7] = dose: 100.0 mg/kg/injection, schedule: Q01DX005 (ip), vehicle: saline with Tween-80
[8] = dose: 100.0 mg/kg/injection, schedule: Q04DX003 (ip), vehicle: Klucel (hydroxypropylcellulose) (HPC)
[9] = dose: 400.0 mg/kg/injection, schedule: Q04DX003 (ip), vehicle: Klucel (hydroxypropylcellulose) (HPC)
[10] = dose: 20.0 mg/kg/injection, schedule: Q04DX003 (ip), vehicle: saline with Tween-80
[11] = dose: 100.0 mg/kg/injection, schedule: Q01DX009 (ip), vehicle: saline with Tween-80
[12] = dose: 200.0 mg/kg/injection, schedule: Q01DX009 (ip), vehicle: saline with Tween-80
[13] = dose: 50.0 mg/kg/injection, schedule: Q01DX009 (ip), vehicle: saline with Tween-80

Measured: T/C

[CH3][Sn]([CH3])([Cl])[S]CCN
inactive: dose: 6.25 mg/kg/injection, schedule: Q01DX009 (ip), vehicle: saline 123 % of control

CCN1CC1
inactive: dose: 3.12 mg/kg/injection, schedule: Q01DX001 (ip), vehicle: Klucel (hydroxypropylcellulose) (HPC) 113 % of control | dose: 6.25 mg/kg/injection, schedule: Q01DX001 (ip), vehicle: Klucel (hydroxypropylcellulose) (HPC) 118 % of control | [1] 90 % of control | dose: 12.5 mg/kg/injection, schedule: Q01DX001 (ip), vehicle: Klucel (hydroxypropylcellulose) (HPC) 86 % of control | [2] 86 % of control

CS(=O)(=O)c1nnc(-c2ccccc2)s1
inactive: dose: 100.0 mg/kg/injection, schedule: Q01DX009 (ip), vehicle: Klucel (hydroxypropylcellulose) (HPC) 94 % of control | dose: 200.0 mg/kg/injection, schedule: Q01DX009 (ip), vehicle: Klucel (hydroxypropylcellulose) (HPC) 100 % of control | dose: 400.0 mg/kg/injection, schedule: Q01DX009 (ip), vehicle: Klucel (hydroxypropylcellulose) (HPC) 103 % of control

c1ccc2c(c1)OCCOCCOc1ccccc1OCCOCCO2
inactive: dose: 4.69 mg/kg/injection, schedule: Q01DX009 (ip), vehicle: saline with Tween-80 100 % of control | dose: 9.38 mg/kg/injection, schedule: Q01DX009 (ip), vehicle: saline with Tween-80 90 % of control | dose: 18.7 mg/kg/injection, schedule: Q01DX009 (ip), vehicle: saline with Tween-80 90 % of control | [3] 100 % of control | dose: 150.0 mg/kg/injection, schedule: Q01DX009 (ip), vehicle: saline with Tween-80 89 % of control | [4] 100 % of control | [5] 105 % of control

CC1(C)OC2(C)CCC1C(O)C2N1CCOCC1 (stereo not given)
inactive: [6] 106 % of control | [7] 106 % of control | dose: 200.0 mg/kg/injection, schedule: Q01DX005 (ip), vehicle: saline with Tween-80 101 % of control

O=C1c2ccccc2C(=O)c2cc3cc(Cl)ccc3cc21
inactive: [8] 90 % of control | dose: 200.0 mg/kg/injection, schedule: Q04DX003 (ip), vehicle: Klucel (hydroxypropylcellulose) (HPC) 90 % of control | [9] 90 % of control

O=c1[nH]c(=O)c(C2OC(CO)C(O)C2O)co1 (stereo not given)
inactive: [10] 100 % of control

Cc1cc(C)c(N)c(Br)c1C
inactive: [11] 100 % of control | [12] 87 % of control

CN(C)c1ccc(C=O)c(Br)c1
inactive: [2] 109 % of control | dose: 25.0 mg/kg/injection, schedule: Q01DX009 (ip), vehicle: Klucel (hydroxypropylcellulose) (HPC) 90 % of control | dose: 50.0 mg/kg/injection, schedule: Q01DX009 (ip), vehicle: Klucel (hydroxypropylcellulose) (HPC) 86 % of control | [8] 90 % of control | [9] 104 % of control

COc1cc(N=Nc2ccc(O)c3ncccc23)c(OC)cc1N=Nc1ccc([N+](=O)[O-])cc1
inactive: [6] 101 % of control | [7] 111 % of control

CN(C)CCC(=O)C(=Cc1ccc(Cl)c(Cl)c1)C(=O)CCN(C)C
inactive: dose: 50.0 mg/kg/injection, schedule: Q01DX005 (ip), vehicle: saline 109 % of control | dose: 100.0 mg/kg/injection, schedule: Q01DX005 (ip), vehicle: saline 114 % of control

N#CC1CCCCC1C1(C#N)CCCCC1Cc1ccc2ccccc2n1 (stereo not given)
inactive: dose: 100.0 mg/kg/injection, schedule: Q04DX002 (ip), vehicle: saline with Tween-80 96 % of control | dose: 200.0 mg/kg/injection, schedule: Q04DX002 (ip), vehicle: saline with Tween-80 104 % of control | dose: 400.0 mg/kg/injection, schedule: Q04DX002 (ip), vehicle: saline with Tween-80 107 % of control

CCNC(=O)OCc1c(COC(=O)NCC)c(-c2ccc(F)cc2)n2c1CCC2
inactive: dose: 25.0 mg/kg/injection, schedule: Q01DX009 (ip), vehicle: other 98 % of control

N#CN=CN1CCC(O)(c2ccccc2)CC1
inactive: [13] 88 % of control | [11] 88 % of control | [12] 94 % of control

O=C1C(Cl)=C(Sc2nc3ccccc3s2)C(=O)c2ccccc21
inactive: [6] 112 % of control

COc1ccc(OC)c(/C=C/C(=O)NCC(O)CO)c1 (stereo not given)
inactive: [13] 95 % of control | [11] 100 % of control

O[C@@H]1CCCC[C@@H]1n1cnc2c(=S)nc[nH]c21
inactive: [11] 92 % of control | [3] 100 % of control | [12] 96 % of control | [4] 104 % of control | [5] 100 % of control

ClC1OC(Cl)C(Cl)OC1Cl (stereo not given)
inactive: [1] 105 % of control | [2] 110 % of control

N#CC(C#N)=Cc1ccc2c(c1)CCC2
inactive: dose: 5.0 mg/kg/injection, schedule: Q04DX003 (ip), vehicle: saline with Tween-80 104 % of control | dose: 9.5 mg/kg/injection, schedule: Q01DX009 (ip), vehicle: saline with Tween-80 104 % of control | dose: 10.0 mg/kg/injection, schedule: Q04DX003 (ip), vehicle: saline with Tween-80 95 % of control | dose: 19.0 mg/kg/injection, schedule: Q01DX009 (ip), vehicle: saline with Tween-80 109 % of control | [10] 95 % of control | dose: 38.0 mg/kg/injection, schedule: Q01DX009 (ip), vehicle: saline with Tween-80 86 % of control and 100 % of control

COc1cccc(CCNC(=O)CC(=O)O)c1OC
inactive: [3] 100 % of control | [4] 105 % of control | [5] 100 % of control

Source: PubChem BioAssay AID328 (DTP/NCI, 2004)
